Data taken from patent publication US20250066286A1, “COMPOSITIONS OF (Z)-ENDOXIFEN AND METHODS OF ENRICHMENT THEREOF” (Atossa Therapeutics, Inc., priority 2022, published 2025).

Assays:
Type in all cases: physicochemical
[1] = Precipitation of (Z)-endoxifen by cooling, gradient precipitation (XRPD); conditions: GRAD
Description: Z)-endoxifen was precipitated by cooling various single and multi- solvent systems. […] The crystallizations utilized cooling rates of 0.5° C./minute or 0.2° C./minute. The samples were then incubated 25° C. with stirring for approximately 15 hours. Some solutions generated precipitate, which was recovered by filtration with a nylon filter (0.22 μm) during centrifugation at 4000 rpm for 3 minutes.
The resulting precipitate was recovered by filtration with a nylon filter (0.22 μm) during centrifugation at 4000 rpm for 3 minutes.
All precipitates were collected for XRPD analysis.

[2] = (Z)-Endoxifen recovery by solvent evaporation (XRPD)
Description: For the single-solvent evaporations, 10 mg (Z)-endoxifen was dissolved in 1 ml of various solvents in which (Z)-endoxifen has >1000 mg/ml solubility (“very soluble”), 100-1000 mg/ml solubility (“freely soluble”), 33-100 mg/ml solubility (“soluble”), and 10-33 mg/ml solubility (“sparingly soluble”). The solutions were stirred for approximately 60 minutes, then left to evaporate. Following (Z)-endoxifen dissolution to a concentration of 10 mg/ml, all solvents generated clear solutions in which the (Z)-endoxifen completely dissolved. The solutions were evaporated at either room temperature (17-25° C.) or elevated temperature (40-60° C.). All evaporations were performed at 1 atmosphere pressure. The solids obtained from the evaporations were analyzed by XRPD.
For the multi-solvent evaporations, 40 mg (Z)-endoxifen was dissolved in either ethanol/water or THF/acetone mixtures. For the water/ethanol evaporations, 20 ml of 70/30 ethanol/water (v/v) mixtures (achieving concentrations of 2 mg/ml (Z)-endoxifen). The white suspensions were incubated for 3 days at 50° C., yielding clear solutions which were then left to evaporate at elevated temperatures. These analyses were repeated over 4 replicates. For the THF/acetone evaporations, 60 mg (Z)-endoxifen were dissolved in 1.5 ml of a multi-solvent system containing tetrahydrofuran (THF) and acetone in a 40/60 (v/v) mixture. The resultant clear solution was filtered and left to evaporate at room temperature.

[3] = Single solvent slurries of (Z)-endoxifen (XRPD of recovered solid)
Description: Further solubility analyses were then performed for solvents which formed suspensions at 50° C. […] The suspensions were recovered and filtered with a nylon filter (0.22 μm) during centrifugation at 4000 rpm for 3 minutes. The solid (Z)-endoxifen collected through filtration was analyzed by XRPD. (Z)-endoxifen remaining in the filtrate was precipitated by addition of antisolvent and also subjected to XRPD analysis.

[4] = 2-propanol 0.5 mL, 20 mg/mL, 75 to 25 °C, ramp −0.2
[5] = acetone 0.5 mL, 20 mg/mL, 25 to −20 °C, ramp not controlled, 3 d
[6] = acetonitrile 0.5 mL, 20 mg/mL, 75 to 25 °C, ramp −0.2
[7] = butyl acetate 0.5 mL, 100 mg/mL, 100 to 25 °C, ramp −0.2
[8] = ethanol 0.5 mL, 20 mg/mL, 75 to 25 °C, ramp −0.2
[9] = SLHT-1D-ACN(100 mg/ml) - Form I reference, FIG. 76: acetonitrile, 100 mg/mL, 50° C., 1 d
[10] = SLHT-1D-ACT(100 mg/ml), FIG. 77: acetone, 100 mg/mL, 40° C., 1 d
[11] = SLRT-14D-BME, FIG. 74: butyl methyl ether, 10 mg/mL, RT, 14 d

Output Crystallinity [high/low/SC/oriented] [1, 4]: low
Output Main phase [phase] [1, 4]: Form I
Output Main phase [phase] ([1]; 2-propanol 0.5 mL, 100 mg/mL, 75 to 25 °C, ramp −0.2): Form I
Output Crystallinity [high/low/SC/oriented] [1, 5]: low
Output Main phase [phase] [1, 5]: Form I
Output Crystallinity [high/low/SC/oriented] [1, 6]: low
Output Main phase [phase] [1, 6]: Form V
Output Crystallinity [high/low/SC/oriented] [1, 7]: low
Output Main phase [phase] [1, 7]: Form I
Output Crystallinity [high/low/SC/oriented] [1, 8]: low
Output Main phase [phase] [1, 8]: Form I
Output Main phase [phase] ([1]; ethanol 0.5 mL, 100 mg/mL, 75 to 25 °C, ramp −0.2): Form I
Output Main phase [phase] ([1]; ethyl acetate 0.5 mL, 100 mg/mL, 75 to 25 °C, ramp −0.2): Form I
Output Main phase [phase] ([1]; methyl isobutyl ketone 0.5 mL, 100 mg/mL, 25 to −20 °C, ramp not controlled, 1 d): Form X
Output Main phase [phase] ([2]; EVHT: butyl acetate, 10 mg/mL, evaporation at 60° C.): Form I
Output Main phase [phase] ([2]; EVHT: dimethylformamide, 10 mg/mL, evaporation at 60° C.): amorphous
Output Main phase [phase] ([2]; EVHT: ethanol/water 70/30 v/v, 2 mg/mL, evaporation at 60° C. (4 replicates)): amorphous
Output Main phase [phase] ([2]; EVHT: methyl isobutyl ketone, 10 mg/mL, evaporation at 60° C.): amorphous
Output Main phase [phase] ([2]; EVHT: toluene, 10 mg/mL, evaporation at 60° C.): amorphous
Output Main phase [phase] ([2]; EVRT: 2-propanol, 10 mg/mL, evaporation at RT): Form IV
Output Main phase [phase] ([2]; EVRT: acetone, 10 mg/mL, evaporation at RT): Form I
Output Main phase [phase] ([2]; EVRT: acetonitrile, 10 mg/mL, evaporation at RT): Form I
Output Main phase [phase] ([2]; EVRT: ethyl acetate, 10 mg/mL, evaporation at RT): Form I
Output Main phase [phase] ([2]; EVRT: methanol, 10 mg/mL, evaporation at RT): Form I
Output Main phase [phase] ([2]; EVRT: tetrahydrofuran/acetone 40/60 v/v, 40 mg/mL, evaporation at RT): Form I
Output Main phase [phase] ([3]; SLHT-1D-ACN(50 mg/ml), FIG. 80: acetonitrile, 50 mg/mL, 50° C., 1 d): Form I
Output Main phase [phase] ([3]; SLHT-1D-ACN(50 mg/ml)-vial attached, FIG. 92: acetonitrile, 50 mg/mL, 50° C., 1 d): Form I
Output Crystallinity [high/low/SC/oriented] [3, 9]: high
Output Main phase [phase] [3, 9]: Form I
Output Main phase [phase] ([3]; SLHT-1D-ACT(50 mg/ml), FIG. 80: acetone, 50 mg/mL, 40° C., 1 d): Form I
Output Crystallinity [high/low/SC/oriented] [3, 10]: high
Output Main phase [phase] [3, 10]: Form I
Output Main phase [phase] ([3]; SLHT-1D-BME, FIG. 75: butyl methyl ether, 10 mg/mL, 40° C., 1 d): Form I
Output Main phase [phase] ([3]; SLHT-1D-H2O, FIG. 75: water, 10 mg/mL, 50° C., 1 d): Form I
Output Main phase [phase] ([3]; SLHT-1D-HEP, FIG. 75: heptane, 10 mg/mL, 50° C., 1 d): Form I
Output Main phase [phase] ([3]; SLRT-1D-DMF(300 mg/ml), FIG. 81: dimethylformamide, 300 mg/mL, RT, 1 d): Form I
Output Main phase [phase] ([3]; SLRT-1D-ETA(20 mg/ml), FIG. 81: ethyl acetate, 20 mg/mL, RT, 1 d): Form I
Output Main phase [phase] ([3]; SLRT-2D-THF(170 mg/ml), FIG. 81: tetrahydrofuran, 169.7 mg/mL, RT, 2 d): Form I
Output Main phase [phase] ([3]; SLRT-3D-ACT(40 mg/ml), FIG. 78: acetone, 40 mg/mL, RT, 3 d): Form I
Output Main phase [phase] ([3]; SLRT-3D-BME, FIG. 73: butyl methyl ether, 10 mg/mL, RT, 3 d): Form I
Output Main phase [phase] ([3]; SLRT-3D-ETH(40 mg/ml), FIG. 78: ethanol, 40 mg/mL, RT, 3 d): Form I
Output Main phase [phase] ([3]; SLRT-3D-H2O, FIG. 73: water, 10 mg/mL, RT, 3 d): Form I
Output Main phase [phase] ([3]; SLRT-3D-HEP, FIG. 73: heptane, 10 mg/mL, RT, 3 d): Form I
Output Main phase [phase] ([3]; SLRT-6HRS-ACT(40 mg/ml), FIG. 81: acetone, 40 mg/mL, RT, 6 h): Form I
Output Main phase [phase] ([3]; SLRT-14D-2PR(100 mg/ml), FIG. 83: 2-propanol, 100 mg/mL, RT, 14 d): Form I
Output Main phase [phase] ([3]; SLRT-14D-ACN(100 mg/ml), FIG. 83: acetonitrile, 100 mg/mL, RT, 14 d): Form I
Output Main phase [phase] ([3]; SLRT-14D-ACT(40 mg/ml), FIG. 79: acetone, 40 mg/mL, RT, 14 d): Form I
Output Main phase [phase] ([3]; SLRT-14D-ACT(100 mg/ml), FIG. 83: acetone, 100 mg/mL, RT, 14 d): Form I
Output Main phase [phase] ([3]; SLRT-14D-BAC(100 mg/ml), FIG. 82: butyl acetate, 100 mg/mL, RT, 14 d): Form I
Output Crystallinity [high/low/SC/oriented] [3, 11]: low
Output Main phase [phase] [3, 11]: Form I
Output Main phase [phase] ([3]; SLRT-14D-ETA(100 mg/ml), FIG. 82: ethyl acetate, 100 mg/mL, RT, 14 d): Form I
Output Main phase [phase] ([3]; SLRT-14D-ETH(40 mg/ml), FIG. 79: ethanol, 40 mg/mL, RT, 14 d): Form I
Output Main phase [phase] ([3]; SLRT-14D-ETH(100 mg/ml), FIG. 82: ethanol, 100 mg/mL, RT, 14 d): Form I
Output Main phase [phase] ([3]; SLRT-14D-H2O, FIG. 74: water, 10 mg/mL, RT, 14 d): Form I
Output Main phase [phase] ([3]; SLRT-14D-HEP, FIG. 74: heptane, 10 mg/mL, RT, 14 d): Form I
Output Main phase [phase] ([3]; SLRT-14D-MET(50 mg/ml), FIG. 84: methanol, 50 mg/mL, RT, 14 d): Form I
Output Main phase [phase] ([3]; SLRT-14D-MIBK(100 mg/ml), FIG. 82: methyl isobutyl ketone, 100 mg/mL, RT, 14 d): Form I
Output Main phase [phase] ([3]; SLRT-14D-TOL(100 mg/ml), FIG. 83: toluene, 100 mg/mL, RT, 14 d): Form I
Polymorphic form recovered (XRPD) ([3]; all single solvent slurries): Form I
Structure (SMILES): CC/C(=C(\c1ccc(O)cc1)c1ccc(OCCNC)cc1)c1ccccc1 [(Z)-endoxifen, (Z)-4-(1-(4-(2-(methylamino)ethoxy)phenyl)-2-phenylbut-1-enyl)phenol]
